Data reported in patent US20040006002A1, “Methods and compositions for treating flaviviruses and pestiviruses using 4'-modified nucleoside” (priority 2001, published 2004).

How the values were obtained:
[1] = Cytotoxicity assay (sulforhodamine B, 4 days); type: cell-based; details: bovine; MDBK cells, 4 days incubation, concentration reducing cell number by 50%; preliminary results
Description: (§1) The test compounds were dissolved in DMSO at an initial concentration of 200 μM and then were serially diluted in culture medium.
(§2) Cells are seeded at a rate of between 5×10^3 and 5×10^4/well into 96-well plates in growth medium overnight at 37° C. in a humidified CO2 (5%) atmosphere. New growth medium containing serial dilutions of the drugs is then added. After incubation for 4 days, cultures are fixed in 50% TCA and stained with sulforhodamineB. The optical density was read at 550 nm. The cytotoxic concentration was expressed as the concentration required to reduce the cell number by 50% (CC50).

[2] = test system: BVDV (strain NADL); assay: Cell Protection Assay (CPA), BVDV-infected MDBK cells; type: cell-based, Bovine Viral Diarrhea virus; details: MOI 0.02, MDBK cells, four days post-infection, 50% reduction of cytopathic effect
Description: as §1
(§3) The assay is performed essentially as described by Baginski, S. G.; Pevear, D. C.; Seipel, M.; Sun, S. C. C.; Benetatos, C. A.; Chunduru, S. K.; Rice, C. M. and M. S. Collett “Mechanism of action of a pestivirus antiviral compound” PNAS USA 2000, 97(14), 7981-7986. MDBK cells (ATCC) are seeded onto 96-well culture plates (4,000 cells per well) 24 hours before use. After infection with BVDV (strain NADL, ATCC) at a multiplicity of infection (MOI) of 0.02 plaque forming units (PFU) per cell, serial dilutions of test compounds are added to both infected and uninfected cells in a final concentration of 0.5% DMSO in growth medium. Each dilution is tested in quadruplicate. Cell densities and virus inocula are adjusted to ensure continuous cell growth throughout the experiment and to achieve more than 90% virus-induced cell destruction in the untreated controls after four days post-infection. After four days, plates are fixed with 50% TCA and stained with sulforhodamine B. The optical density of the wells is read in a microplate reader at 550 nm. The 50% effective concentration (EC50) values are defined as the compound concentration that achieved 50% reduction of cytopathic effect of the virus.

[3] = Cell Protection Assay (CPA), uninfected cells (cytotoxicity); type: cell-based; details: bovine, uninfected MDBK cells, Table 2, Cell Protection Assay
Description: as §2, §3

[4] = test system: MDBK; assay: Cytotoxicity assay (sulforhodamine B, 4 days); type: cell-based; details: MDBK cells, 4 days incubation, concentration reducing cell number by 50%; preliminary results
Description: as §1, §2

[5] = test system: MDBK cells; assay: Cell Protection Assay (CPA), uninfected cells (cytotoxicity); type: cell-based; details: Table 2, Cell Protection Assay
Description: as §2, §3

[6] = Bovine viral diarrhea virus isolates and strains, 96 h

| SMILES | CC50 at 4 days [1] | EC50 [2, 6] | CC50 at 4 days [3] | melting point | CC50 [4] | EC50 [2] | CC50 [5] |
| --- | --- | --- | --- | --- | --- | --- | --- |
| C[C@]1(CO)O[C@@H](n2ccc(N)nc2=O)[C@H](O)[C@@H]1O [β-D-4'-CH3-riboC, 1-(4-C-methyl-β-D-ribofuranosyl)cytosine] | > 250 µM | 9 µM | > 250 µM | – | – | – | – |
| C[C@]1(CO)O[C@@H](n2cnc3c(N)ncnc32)[C@H](O)[C@@H]1O [β-D-4'-CH3-riboA, 9-(4-C-methyl-β-D-ribofuranosyl) adenine] | > 250 µM | > 250 µM | > 250 µM | 96 to 97 °C (dec.) | – | – | – |
| C[C@]1(CO)O[C@@H](n2cnc3c(=O)[nH]c(N)nc32)[C@H](O)[C@@H]1O [β-D-4'-CH3-riboG, 9-(4-C-methyl-β-D-ribofuranosyl) guanine] | > 250 µM | 43 µM | > 250 µM | – | – | – | – |
| C[C@]1(CO)O[C@@H](n2ccc(=S)[nH]c2=O)[C@H](O)[C@@H]1O [β-D-4'-CH3-ribo-4-thioU, 1-(4-C-methyl-β-D-ribofuranosyl)4-thio-uracil] | > 250 µM | > 250 µM | > 250 µM | 65 to 70 °C (dec.) | – | – | – |
| Cc1cn([C@@H]2O[C@](C)(CO)[C@@H](O)[C@H]2O)c(=O)[nH]c1=O [β-D-4'-CH3-riboT, 1-(4-C-methyl-β-D-ribofuranosyl)thymine] | > 250 µM | > 250 µM | > 250 µM | 258 to 260 °C (dec.) | – | – | – |
| C[C@]1(CO)O[C@@H](n2cc(F)c(=O)[nH]c2=O)[C@H](O)[C@@H]1O [β-D-4'-CH3-ribo-5-fluoroU] | – | – | – | – | > 167 µM | > 167 µM | > 167 µM |
